Assay results as given in patent publication US6699902B2, “Acetyloxymethyl esters and methods for using the same” (Beacon Laboratories, Inc., priority 2000, dated 2004).

system: PC-3 prostate breast cancer cells; assay: EDR assay, anti-proliferation against PC-3 cells (3H-thymidine incorporation in soft agar); assay type: cell-based; conditions: Homo sapiens, PC3 cell line, five days incubation, 3H-TdR incorporation
Procedure: Compounds prepared according to Examples 1-7 were tested for anti-proliferation against PC-3 prostate […] cancer cells. Butyric acid and trichostatin, a potent HDAC inhibitor, were used as reference compounds. Both compounds were purchased from Sigma-Aldrich, Milwaukee, Wis.
The PC3 cell line was maintained in RPMI supplemented with 10% fetal calf serum and antibiotics. The EDR assay was performed as described by Kern and Weisenthal in “Highly Specific Prediction of Antineoplastic Drug Resistance With An In Vitro Assay Using Suprapharmacologic Drug Exposures,” J. Nat. Cancer Inst., 82:582-588 (1990); and Fruehauf and Bosanquet, “In vitro Determination of Drug Response: A Discussion of Clinical Applications,” PPO Updates 7(12):1-16 (1993). Cells were suspended in 0.12% soft agar in complete medium and plated (2,000 cells per well, as determined by preliminary experiments) in different drug concentrations onto a 0.4% agarose underlayer in 24-well plates. Plating cells on agarose underlayers supports the proliferation only of the transformed cells, ensuring that the growth signal stems from the malignant component of the tumor.
All compounds were dissolved in DMSO to 200× stock solutions. Stock solutions were diluted to 20× working solutions using the tissue culture medium, serially diluted and added to the 24-well plates. The concentration range was 0.001 μM to 0.3 μM for trichostatin and 10 μM-1,000 μM for the other compounds. No significant changes in pH of the culture medium were observed under the above conditions. Diluent control wells contained PC3 cells treated with DMSO, at the dilutions used for appropriate drug treatment. All experimental points were represented by two separate wells (duplicates). Positive controls were determined using at least two wells treated with an extremely high dose of cisplatin, an anti-cancer agent. Four wells containing tumor cells that were not treated with drugs served as negative controls in each experiment.
Cells were incubated with drugs under standard culture conditions for five days. Cultures were pulsed with tritiated thymidine (^3H-TdR, New Life Science Products, Boston, Mass.) at 5 μCi per well for the last 48 hours of the culture period. Cell culture plates were then heated to 90° C. to liquefy the agarose, and cells were harvested onto glass fiber filters, which were then placed into counting vials containing liquid scintillation fluid. The radioactivity trapped on the filters was counted with a Beckman scintillation counter. The fraction of surviving cells was determined by comparing ^3H-TdR incorporation in treated (experimental points) and untreated (negative control) wells. All drug concentrations are presented as μM, allowing for normalization of drug response curves and direct comparison of the effects of the drugs. Microsoft Excel was used to organize the raw data on EDR experiments, and the SigmaPlot program was utilized to generate drug response curves. All drug response curves were as approximated as sigmoidal equations (characteristic for typical drug response curves) to fit the data. IC50 values were determined using the approximated sigmoidal curves and expressed as μM.

Row | Compound | IC50 [µM]
1 | CCCC(=O)O [butyric acid, reference compound] | > 2000
2 | CC(=O)OCOC(=O)C=CSc1ccccc1 [3-(phenylthio)acryloyloxymethyl acetate] | 30
3 | CC(=O)OCOC(=O)CSCc1ccccc1 [S-benzylthioglycoloyloxymethyl acetate] | 28.4
4 | CC(=O)OCOC(=O)C#Cc1ccccc1 [phenylpropioloyloxymethyl acetate] | 25

Stronger by IC50, values ahead:

Row | IC50 [µM] | Compound
5 | 23.2 | CC(=O)OCOC(=O)CCCC1CCCCC1 [4-cyclohexanebutyroyloxymethyl acetate]
6 | 0.005 | CC(/C=C/C(=O)NO)=C\[C@@H](C)C(=O)c1ccc(N(C)C)cc1 [trichostatin, reference compound]
7 | 12.5 | CC(=O)OCOC(=O)C=Cc1ccccc1 [cinnamoyloxymethyl acetate]
8 | 20 | CC(=O)OCOC(=O)C=CC=Cc1ccccc1 [5-phenyl-2,4-pentadienoyloxymethyl acetate]
9 | 18 | CC(=O)OCOC(=O)CC=CC=Cc1ccccc1 [6-phenyl-3,5-hexadienoyloxymethyl acetate]
